Results on 39 molecules are retold here after ChEMBL document CHEMBL5727000, “Carboxamide or sulfonamide substituted thiazoles and related derivatives as modulators for the orphan nuclear receptor ROR[γ]” (2019).

pIC50: −log10 of the molar value.

Assay [1] is described as follows: RORgamma Gal4 Reporter Gene Assay (FF): Cells were incubated for additional 16 h before firefly (FF) luciferase activities were measured sequentially in the same cell extract using a Dual-Light-Luciferase-Assay system (Dyer et al., Anal. Biochem. 2000, 282:158). All experiments were done at least in triplicates. (Reporter assays use an easily measured gene product as a stand-in for the process of interest.)

A short description of assay [2]: RORgamma Gal4 Reporter Gene Assay (REN): Cells were incubated for additional 16 h before renilla (REN) luciferase activities were measured sequentially in the same cell extract using a Dual-Light-Luciferase-Assay system (Dyer et al., Anal. Biochem. 2000, 282:158). All experiments were done at least in triplicates.

What is called pIC50 is the negative decadic logarithm of the IC50, by convention in mol/L. Read a low pIC50 as a large IC50. Take `CC(C)(C)NS(=O)(=O)c1ccc(-c2oc(C(=O)NC3CCOCC3)nc2CC2CCCCC2)c2ccccc12`: the negative logarithm of the IC50 (pIC50) in assay [1] is 7.80; in assay [2], 7.90.

With `C[C@H](NS(=O)(=O)c1ccc(-c2sc(C(=O)N3CC4(C3)CS(=O)(=O)C4)nc2CC2CC2)c2ccccc12)C(F)(F)F`, the pIC50 in assay [1] and in assay [2] was 8.20 in each case. In the case of `CC(C)(O)CNC(=O)c1nc(CC2CCCCC2)c(-c2ccc(S(N)(=O)=O)c(Cl)c2Cl)s1`, the pIC50 in assay [1] and in assay [2] was more than 4.70 in each case. As for `CC(C)(C)NS(=O)(=O)c1ccc(-c2oc(C(=O)NC3CCS(=O)(=O)CC3)nc2CC2CCCCC2)c(Cl)c1Cl`, the pIC50 is 8.40 in assay [1] and 8.20 in assay [2]. With `CC(C)(O)CNC(=O)c1nc(C(=O)C2CCC(C)(C)CC2)c(-c2ccc(S(=O)(=O)NC(C)(C)C)c3ccccc23)s1`, the pIC50 in assay [1] is 7.60; in assay [2], 7.50.

As to `CC(C)(C)NS(=O)(=O)c1ccc(-c2sc(C(=O)NC3CCC3)[n+]([O-])c2CC2CCCCC2)c2ccccc12`, the pIC50 in assay [1] and in assay [2] was 7.50 each time. In turn, `CC1CCN(C(=O)c2nc(C(=O)N3CC4(CCS(=O)(=O)CC4)C3)oc2-c2ccc(S(=O)(=O)NC(C)(C)C)c3ccccc23)CC1` gave a negative-log IC50 (pIC50) in assay [2] of 5.60. For the molecule `CC(C)(C)c1cc(-c2sc(C(=O)NC3CC(OC=O)C3)nc2CC2CCCCC2)nc(C(C)(C)C)n1` (stereo unspecified), the negative logarithm of the IC50 (pIC50) in assay [1] and in assay [2] was 6.90 throughout.

On to `CC1CCN(C(=O)c2nc(C(=O)NCC(C)(C)O)sc2-c2ccc(S(=O)(=O)NCC(C)(C)O)c3ccccc23)CC1`, for which, in assay [2], the pIC50 was 5.80. With `CC(C)(C)NS(=O)(=O)c1ccc(-c2sc(C(=O)NC3CCC3)nc2CC2CCCCC2)c(OC(F)F)c1Cl`, the results for the pIC50 in assay [1] and in assay [2] were 8.00 and 8.30, respectively. Taken in the same sequence, the figures for `CC(C)(C)NS(=O)(=O)c1ccc(-c2sc(C(=O)NC3CCC3)nc2CC2CCCCC2)c(OC(F)(F)F)c1` were 8.00 and 8.20. In assay [2], `CC1CCN(C(=O)c2nc(C(=O)N3CC4(CCOCC4)C3)sc2-c2ccc(S(=O)(=O)NC(C)(C)C)c3ccccc23)CC1` gave a pIC50 of 7.20. Consider `CC(C)(C)c1cc(-c2sc(C(=O)NC3CCC3)[n+]([O-])c2CC2CCCCC2)cc(C2(C)CC2)c1`, for which the pIC50 in assay [1] was 7.50; in assay [2], 7.60.

On to `CCC(C)(C)NS(=O)(=O)c1ccc(-c2sc(C(=O)NCc3ncc(S(C)(=O)=O)s3)nc2C(=O)N2CCC(C)CC2)c(Cl)c1C`, for which the pIC50 in assay [2] was 7.70. For the molecule `CC(C)(C)c1cc(-c2nc(C(N)=O)oc2CC2CCCCC2)cc(C(C)(C)C)c1`, the pIC50 in assay [1] and in assay [2] was more than 4.70 each time. In the case of `O=CO[C@H]1C[C@H](NC(=O)c2nc(CC3CCCCC3)c(-c3ccc(OC(F)(F)F)c4ccccc34)s2)C1`, the pIC50 in assay [1] and in assay [2] was 6.90 in each case.

As for `CC1CC(C)CN(C(=O)c2nc(C(=O)NCC(C)(C)O)sc2-c2ccc(S(=O)(=O)NC(C)(C)C)c3ccccc23)C1` (stereo unspecified), the pIC50 in assay [2] is 6.90.

As for `CC1CCN(C(=O)c2nc(C(=O)NCC(C)(C)O)sc2-c2ccc(S(=O)(=O)NCC(F)(F)F)c3ccccc23)CC1`, in assay [2], the pIC50 is 7.40. Still for that read-out and setting: under `CC1CCN(C(=O)c2nc(C(=O)N3CC4(CCS(=O)(=O)CC4)C3)sc2-c2ccc(S(=O)(=O)NC(C)(C)C)c3ccccc23)CC1` stands 6.60.

Regarding `CC(C)(C)NS(=O)(=O)c1ccc(-c2sc(C(=O)NC3CCOCC3)nc2CC2CCCCC2)cc1C(F)(F)F`, the results for the pIC50 in assay [1] and in assay [2] were 8.00 and 8.30, respectively. Consider `CCC1CCN(C(=O)c2nc(C(=O)NCC(C)(C)O)sc2-c2ccc(S(=O)(=O)NC(C)(C)C)c3ccccc23)CC1`, for which, in assay [2], the pIC50 was 7.50. With `CCOC(=O)c1nc(Cc2ccccc2)c(-c2ccc(S(=O)(=O)NC(C)(C)C)c3ccccc23)s1`, the negative logarithm of the IC50 (pIC50) was 7.90 in assay [1] and 8.00 in assay [2].

Take `CC(C)(C)c1cc(-c2sc(C(=O)NC3CC(OC=O)C3)nc2CC2CCCCC2)nc(C2(C)CC2)n1` (stereo unspecified): the pIC50 in assay [1] was 6.80; in assay [2] it was 6.70.

Regarding `CC(C)(C)c1cc(-c2sc(S(=O)(=O)NC(=O)OCc3ccccc3)nc2CC2CCCCC2)cc(C2(C)CC2)c1`, the pIC50 in assay [1] and in assay [2] was more than 4.70 each time. In the case of `CC1CCCCN1C(=O)c1nc(C(=O)NCC(C)(C)O)sc1-c1ccc(S(=O)(=O)NC(C)(C)C)c2ccccc12` (stereo unspecified), in assay [2], the pIC50 is 7.30. For the molecule `O=CO[C@H]1C[C@H](NC(=O)c2nc(CC3CCCCC3)c(-c3ccc(OCC(F)(F)F)c4ccccc34)s2)C1`, the pIC50 in assay [1] is 6.50; in assay [2], 6.20.

In the case of `C[C@H](NC(=O)c1cc(-c2sc(C(=O)NCC(C)(C)c3noc(=O)[nH]3)nc2CC2CCCCC2)cc(C2(C)CC2)c1)C(F)(F)F`, the negative logarithm of the IC50 (pIC50) in assay [1] and in assay [2] was 8.30 throughout. Regarding `CC(C)(O)CNC(=O)c1nc(CC2CCC2)c(-c2ccc(S(=O)(=O)NC(C)(C)C)c(Cl)c2OC(F)F)s1`, the pIC50 is 7.50 in assay [1] and 7.40 in assay [2]. Taken in the same sequence, the figures for `CC(C)(C)c1cc(-c2nc(C(=O)N[C@H]3C[C@H](OC=O)C3)oc2CC2CCCCC2)cc(C2(C)CC2)c1` were 6.40 and 6.60. `CC(C)(C)NS(=O)(=O)c1cnc(-c2sc(C(=O)N[C@H]3C[C@H](C(=O)O)C3)nc2CC2CCCCC2)nc1C(C)(C)C`: the pIC50 was 6.70 in assay [1] and 6.40 in assay [2].

As to `COc1ccc(-c2sc(C(=O)N[C@H]3C[C@H](OC=O)C3)nc2CC2CCCCC2)c2ccccc12`, the pIC50 in assay [1] and in assay [2] was 6.60 each time. On to `O=C(NC1CCS(=O)(=O)CC1)c1nc(CC2CCCCC2)c(-c2ccc(C3(O)CCC3)c3ccccc23)s1`, for which the pIC50 in assay [1] is 6.30; in assay [2] it was 6.20. For `CC(C)(O)CN1CCN(C(=O)c2nc(CC3CCCCC3)c(-c3ccc(S(=O)(=O)NC(C)(C)C)c4ccccc34)s2)CC1`, the results for the pIC50 in assay [1] and in assay [2] were 6.80 and 6.90, respectively. Take `CC(C)(C)NS(=O)(=O)c1ccc(-c2sc(C(=O)N[C@H]3C[C@H](C(=O)O)C3)nc2Cc2ccccc2)c2ccccc12`: the pIC50 in assay [1] is 7.58. Still for that read-out and setting: under `CC(C)(C)NS(=O)(=O)c1ccc(-c2oc(C(=O)N3CC4(CCS(=O)(=O)CC4)C3)nc2CC2CCCCC2)c2ccccc12` stands 5.90. As to `CC1CCN(C(=O)c2nc(C(=O)NCC(C)(C)O)sc2-c2ccc(S(=O)(=O)N[C@@H](C)C(F)(F)F)c3ccccc23)CC1`, the pIC50 in assay [2] is 7.70. In the case of `CC(C)(O)CNC(=O)c1nc(CC2CCCCC2)c(-c2ccc(S(=O)(=O)NC(C)(C)C)c(Cl)c2Cl)o1`, the negative logarithm of the IC50 (pIC50) is 7.40 in assay [1] and 7.50 in assay [2]. With `CC(C)(C)NS(=O)(=O)c1ccc(-c2sc(C(=O)NC3CCOCC3)nc2CC2CCCCC2)cc1C(C)(C)C`, the negative-log IC50 (pIC50) in assay [1] was 7.80; in assay [2], 7.90. The matching figures for `CC(=O)NS(=O)(=O)c1nc(-c2cc(C(C)(C)C)cc(C(C)(C)C)c2)c(CC2CCCCC2)s1`: more than 4.70 and more than 4.70.
